Measurements: patent US20070218475A1, “Efficient drug screening for protein targets” (priority 2005, published 2007)
Read-outs that look alike come from different tables or passages of the source.

Legend:
SmoA1 = target: T1, SmoA1 (Mus musculus, UniProt P56726, W539L); assay: Photoaffinity labeling of SmoA1 with 125I-labeled PA-cyclopamine; format: binding; details: Cos-1 cells, SmoA1-Myc3
T1 construct: expressed in transfected cells; host or cells: Cos-1
Method: Photoaffinity labeling of Smo proteins: Cos-1 cells were cultured in 6-well plates and transfected with Smo-Myc3 or SmoA1-Myc3 expression vectors (1 μg/well). Two days after transfection, each well was incubated with 1 μCi of ^125I-labeled PA-cyclopamine (˜0.5 nM final concentration) in phenol red-free DMEM containing 0.5% bovine calf serum and various concentrations of the indicated compounds for 10 minutes at 37° C. Solvent vehicle alone (MeOH or DMSO) was used as a control in these experiments. PA-cyclopamine was then activated by 254 nm light (80,000 μJ/cm^2; Stratalinker UV-cross-linker) at room temperature. The cells were immediately chilled on ice, removed from the plates by scraping, and then directly lysed and sonicated in SDS-PAGE loading buffer. Total cell lysates were separated by SDS-PAGE and transferred to nitrocellulose for analysis by autoradiography and western blotting with an anti-Myc monoclonal antibody (9E10; Santa Cruz Biotechnology).

Shh signaling [1] = assay: Shh-LIGHT2 assay for Hh pathway activation (Gli-dependent luciferase reporter); format: cell-based, mouse
Smo [2] = target: T2, Smo (Mus musculus, UniProt P56726); assay: Photoaffinity labeling of Smo with 125I-labeled PA-cyclopamine; format: binding
T2 construct: expressed in transfected cells; host or cells: Cos-1
T2 sequence (P56726 33-793): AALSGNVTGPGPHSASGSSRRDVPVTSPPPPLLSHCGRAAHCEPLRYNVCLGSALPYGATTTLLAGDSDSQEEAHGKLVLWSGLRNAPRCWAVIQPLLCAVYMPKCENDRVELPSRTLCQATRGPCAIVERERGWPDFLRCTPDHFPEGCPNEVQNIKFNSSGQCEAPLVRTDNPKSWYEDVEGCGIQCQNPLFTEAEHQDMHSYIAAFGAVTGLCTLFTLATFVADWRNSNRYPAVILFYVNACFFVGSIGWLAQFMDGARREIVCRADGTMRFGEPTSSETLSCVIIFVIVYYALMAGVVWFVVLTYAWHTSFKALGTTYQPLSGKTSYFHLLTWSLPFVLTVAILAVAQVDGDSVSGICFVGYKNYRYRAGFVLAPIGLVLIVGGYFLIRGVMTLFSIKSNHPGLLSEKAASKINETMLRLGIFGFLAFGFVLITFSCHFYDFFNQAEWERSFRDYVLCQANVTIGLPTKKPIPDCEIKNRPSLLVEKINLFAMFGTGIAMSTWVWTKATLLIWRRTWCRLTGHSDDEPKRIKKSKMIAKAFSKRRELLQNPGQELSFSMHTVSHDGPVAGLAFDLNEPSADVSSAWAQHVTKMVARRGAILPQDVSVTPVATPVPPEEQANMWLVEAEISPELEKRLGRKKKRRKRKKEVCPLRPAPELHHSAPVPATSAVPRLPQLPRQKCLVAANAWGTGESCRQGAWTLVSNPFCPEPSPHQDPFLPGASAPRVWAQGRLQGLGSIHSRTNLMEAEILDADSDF

SmoA1-GFP = target: T3, SmoA1-GFP (Mus musculus, UniProt P56726, W539L); assay: Localization study of SmoA1-GFP in C3H/10T1/2 cells; format: cell-based
T3 construct: expressed in transfected cells; host or cells: C3H/10T1/2
T3 sequence (P56726 33-793 W539L): as the sequence (P56726 33-793) above, with W507L counted along it
Method: Localization studies of Smo and SmoA1 proteins: C3H/10T1/2 cells (ATCC) were cultured in DMEM containing 10% fetal bovine serum, 0.5 μg/ml ZnSO4 and β-mercaptoethanol (3.5 μL/500 ml DMEM) on glass coverslips (Bioptechs) in […]. […] To assess SmoA1 subcellular localization, either an ER marker (pECFP-ER; Clontech) or a Golgi marker (pECFP-Golgi; Clontech) was cotransfected with the SmoA1-YFP construct. […] Fluorescent protein illumination, detection and imaging was performed on a Zeiss inverted microscope outfitted with a Xenon light source (Lambda DG4; Sutter instruments), single or dual-pass filters (Chroma Technologies), and a cooled CCD camera (Roper Scientific). Images were acquired and processed with Metamorph software (Universal Images).

[3] = Keeler and Binns 1965; Berman et al. 2002; cited from earlier work
Shh signaling [4] = details: read-out: IC50 in the Shh-LIGHT2 assay, Taipale et al. 2000; cited from earlier work
Smo [5] = target: T2, Smo; assay: Fluorescence (BODIPY-cyclopamine) binding assay, Smo-expressing Cos-1 cells
Method: (§1) For flow cytometry experiments, the cells were then trypsinized, collected by centrifugation, resuspended in phenol red-free DMEM containing 0.5% bovine calf serum, and analyzed for green fluorescence (FACScan, Beckton Dickinson). […] Curve fitting analysis was performed with Kaleidograph (Synergy Software).

SmoA1-Myc3 = target: T4, SmoA1-Myc3 (Mus musculus, UniProt P56726, W539L); assay: Endo H digestion of SmoA1-Myc3 (glycosylation state) in Cos-1 cells; format: cell-based; details: 5 μM KAAD-cyclopamine
T4 construct: expressed in transfected cells; host or cells: Cos-1
T4 sequence (P56726 33-793 W539L): as the sequence (P56726 33-793) above, with W507L counted along it
Method: Endo H digestion of Smo proteins: Cos-1 cells were cultured in DMEM containing 10% fetal bovine serum in 6-well plates and transfected with Smo-Myc3 or SmoA1-Myc3 expression vectors (1 μg/well). One day after transfection, 5 μM KAAD-cyclopamine (in MeOH, final concentration 0.1%) was added to a well of the SmoA1-Myc3-expressing cells. Two days after transfection, each well of cells washed twice with PBS and lysed with 300 μL of RIPA buffer (50 mM Tris-Cl, pH 7.5, 150 mM NaCl, 1% NP-40, 0.5% sodium deoxycholate, 1 mM EDTA, 1 (μg/ml leupeptin, 1 μg/ml aprotinin, 0.2 mM phenylmethylsulfonyl fluoride). Cell lysates were centrifuged at 20,000×g for 15 minutes at 4° C., and the supernatant was then centrifuged at 100,000×g for 30 minutes. The supernatant of the second centrifugation was then used for glycosidase treatments and/or SDS-PAGE. For glycosidase treatments, 45 μL of cell lysate was denatured in 0.5% SDS, 1% β-mercaptoethanol for 10 minutes at room temperature and then incubated in 50 mM sodium citrate (pH 5.5) and 50 units of endoglycosidase-H (New England Biolabs) at 37° C. overnight. The anti-Myc monoclonal antibody was used for western blotting, following SDS-PAGE separation and protein transfer to nitrocellulose.

SmoΔCT = target: T5, SmoΔCT (Mus musculus, UniProt P56726); assay: Fluorescence (BODIPY-cyclopamine) binding assay, Cos-1 cells expressing SmoΔCT; details: 150 nM KAAD-cyclopamine
T5 construct: expressed in transfected cells; host or cells: Cos-1
T5 sequence (P56726 33-555 limits assumed): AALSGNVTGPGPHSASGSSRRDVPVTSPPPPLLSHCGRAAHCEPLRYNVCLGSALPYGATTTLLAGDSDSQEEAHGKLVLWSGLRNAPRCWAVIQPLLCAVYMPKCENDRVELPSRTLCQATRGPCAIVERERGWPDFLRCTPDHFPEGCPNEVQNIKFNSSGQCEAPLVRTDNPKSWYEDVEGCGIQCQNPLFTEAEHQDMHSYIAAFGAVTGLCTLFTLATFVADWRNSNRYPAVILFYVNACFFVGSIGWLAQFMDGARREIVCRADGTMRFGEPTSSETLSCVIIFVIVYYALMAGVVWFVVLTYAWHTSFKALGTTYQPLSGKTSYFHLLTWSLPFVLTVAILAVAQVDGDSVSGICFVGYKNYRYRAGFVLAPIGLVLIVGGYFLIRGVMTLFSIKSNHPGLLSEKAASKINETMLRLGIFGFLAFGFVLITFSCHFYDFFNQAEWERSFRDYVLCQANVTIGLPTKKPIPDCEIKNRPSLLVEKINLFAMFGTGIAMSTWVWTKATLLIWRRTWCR
From the text: (§2) Preparation of Smo fusion proteins and deletion mutants: Both Smo-Myc3 and SmoA1-Myc3 are C-terminally fused to three consecutive Myc epitopes. […] Smo-GFP is comprised of green fluorescent protein fused to the C-terminus of Smo, and the fluorescent proteins in SmoA1-YFP, and SmoA1-GFP are similarly fused to the C-terminus of SmoA1. All constructs were generated by PCR and verified by DNA sequencing.
as §1

SmoΔCRD = target: T6, SmoΔCRD (Mus musculus, UniProt P56726, DEL68-182); assay: Fluorescence (BODIPY-cyclopamine) binding assay, Cos-1 cells expressing SmoΔCRD; details: 150 nM KAAD-cyclopamine
T6 construct: expressed in transfected cells; host or cells: Cos-1
T6 sequence (P56726 with tags, fused parts or gaps DEL68-182): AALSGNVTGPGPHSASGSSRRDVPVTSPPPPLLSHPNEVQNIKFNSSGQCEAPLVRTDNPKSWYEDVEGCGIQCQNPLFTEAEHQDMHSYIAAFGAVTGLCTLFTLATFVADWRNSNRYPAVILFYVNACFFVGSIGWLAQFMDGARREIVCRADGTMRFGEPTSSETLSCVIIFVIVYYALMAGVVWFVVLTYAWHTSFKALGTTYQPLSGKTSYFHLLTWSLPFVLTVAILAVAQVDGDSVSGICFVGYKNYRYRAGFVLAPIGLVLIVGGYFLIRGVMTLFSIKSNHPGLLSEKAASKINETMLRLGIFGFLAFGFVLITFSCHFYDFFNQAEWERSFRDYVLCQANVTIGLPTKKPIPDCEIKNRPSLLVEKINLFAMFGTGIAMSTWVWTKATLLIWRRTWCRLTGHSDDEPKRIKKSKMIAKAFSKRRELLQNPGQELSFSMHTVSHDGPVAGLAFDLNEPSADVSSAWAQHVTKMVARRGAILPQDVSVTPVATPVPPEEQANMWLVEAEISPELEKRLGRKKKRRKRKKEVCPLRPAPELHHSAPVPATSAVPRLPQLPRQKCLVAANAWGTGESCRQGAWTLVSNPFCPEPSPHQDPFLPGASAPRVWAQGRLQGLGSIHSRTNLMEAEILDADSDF
From the text: as §2, §1

T1 sequence (P56726 33-793 W539L): as the sequence (P56726 33-793) above, with W507L counted along it

In the case of PA-cyclopamine, the “photoaffinity cross-linking of SmoA1” value (SmoA1) is reported as “unable to efficiently cross-link”, the IC50 (Shh signaling [1]; Shh-LIGHT2 mouse cultured cell assay, read-out: IC50, inhibition of Shh signaling) is reported as 150 nM and the “photoaffinity labeling of Smo-Myc3 (two forms)” value (Smo [2]; Cos-1 cells transiently transfected, upon photoactivation) is reported as “readily labeled”. The “photoaffinity labeling of endogenous mouse Smo” value (Smo [2]; live NTH-3T3 cells, light activation) was “did not detectably label”.

In the case of CNC1CCC(N(Cc2cccc(-c3ccncc3)c2)C(=O)c2sc3ccccc3c2Cl)CC1 (stereo not drawn) [SAG], the “ER-localization of SmoA1-GFP” value (SmoA1-GFP; 1 μM) is reported as “reversed”.

For CC1=C2C[C@H]3[C@@H](CC=C4C[C@@H](O)CC[C@@]43C)[C@@H]2CC[C@]12O[C@@H]1C[C@H](C)CN[C@H]1[C@H]2C [cyclopamine, reference compound], the “observable toxicity in treated animals” value [3] is given as “absence of observable toxicity” and the IC50 (Shh signaling [1]; Mus musculus, Shh Light2, read-out: IC50, inhibition of Shh signaling) is given as 300 nM.

In the case of CC1=C2C[C@H]3[C@@H](CC=C4CC(=O)CC[C@@]43C)[C@@H]2CC[C@]12O[C@@H]1C[C@H](C)CN(CCNC(=O)CCCCCNC(=O)CCc3ccccc3)[C@H]1[C@H]2C [KAAD-cyclopamine], the IC50 (Shh signaling [4]) is listed as 20 nM, the “inhibition of BODIPY-cyclopamine binding to cells expressing wildtype Smo” value (Smo [5]; 150 nM KAAD-cyclopamine) is listed as “inhibited” and the Kd (Smo [5]; competition of 5 nM BODIPY-cyclopamine binding, flow cytometry, Cos-1 cells, read-out: apparent dissociation constant (Kd), KAAD-cyclopamine/Smo complex) is listed as 23 nM. For the same compound, the “shift in SmoA1 glycosylation state (endo H)” value (SmoA1-Myc3) was “partial conversion of SmoA1 to an endo H-resistant form”, the “inhibition of BODIPY-cyclopamine binding to cells expressing SmoΔCT” value (SmoΔCT) was “inhibited” and the “ER-localization of SmoA1-GFP” value (SmoA1-GFP; 10 μM) was “reversed”. For the same compound, the “competition of PA-cyclopamine labeling of Smo-Myc3” value (Smo [2]; 1.5 μM KAAD-cyclopamine, Cos-1 cells) was “inhibited” and the “inhibition of BODIPY-cyclopamine binding to cells expressing SmoΔCRD” value (SmoΔCRD) was “inhibited”.
